The record followed here is patent US12161745B2, “Peptides and compositions for use in cosmetics” (LIPOTRUE, S.L., priority 2019, dated 2024).

Where a SMILES comes first, the peptide text is derived from it. The star is where a group is joined. Palmitoyl = CCCCCCCCCCCCCCCC(=O)*

Type in all cases: cell-based
The test system of data set [1] is human organotypical skin explant cultures (hOSECs). The data set is described as follows: LDH cytotoxicity assay in human organotypical skin explant cultures. Here is the method:
(§1) In this case healthy and aged human organotypical skin explant cultures (hOSECs) were used as experimental systems.
(§2) The aged hOSEC was obtained by exposition of the healthy hOSEC to hydrocortisone (5 μg/mL) for the first five days of the study.
The total number of treatment groups was as follows: • 1. Control group (negative control): Untreated hOSEC. • 2. Aged hOSEC: hOSECs treated with hydrocortisone at 5 μg/mL (Abraham A, Roga G. (2014) Topical steroid-damaged skin. Indian J Dermatol. 59(5), 456-9.) • 3. Aged hOSEC+Product A (cream, this is, placebo): hOSECs treated with hydrocortisone at 5 μg/mL and incubated with product A (10 μL). • 4. […]
The LDH Cytotoxicity test is a colorimetric assay that quantitatively measures lactate dehydrogenase (LDH), a stable cytosolic enzyme that is released into the culture medium supernatant upon damage of the cytoplasmic membrane. The released LDH in culture medium supernatants is measured for 30 minutes coupled enzymatic reaction: LDH oxidizes lactate to pyruvate which then reacts with the tetrazolium salt WST-1 to form formazan. The increase in the amount of formazan measured in the culture supernatant directly correlates to the increase in the number of lysed cells (damage) in the skin explant. […]
The results of this assay were calculated considering the negative control, this is, untreated hOSEC as 100% of the LDH normal concentration.

Data set [2] concerns HEKa (Human Epidermal Keratinocytes, adult) cells. The data set is described as follows: MTT viability assay (cytotoxicity) in HEKa cells. To be noted: 0.001-0.1 mg/mL, 24 h, vs basal state. Here is the method: (§3) The cytotoxicity of peptide Pal-SEQ ID NO: 1-NH2 was analysed by means of viability assay in HEKa (Human Epidermal Keratinocytes, adult) and HDFa (Human Dermal Fibroblasts, adult) cells.
(§4) Cytotoxicity was assessed by means of the MTT assay. Briefly HEKa and HDFa cells were seeded in 96-well plates at a concentration of 1×10^5 cells/mL and incubated in Epilife Medium supplemented with 1% (v/v) EDGS and 1% (v/v) of Penicillin/Streptomycin (for HEKa cells) and Medium 106 supplemented with 2% (v/v) of Low Serum Growth Supplement (LSGS) (for HDFa cells) for 24 h at 37° C., 5% CO2 and saturated humidity. Cells were then treated with different concentrations of peptide Pal-SEQ ID NO: 1-NH2 (0.001 mg/mL, 0.005 mg/mL, 0.01 mg/mL, 0.05 mg/mL, and 0.1 mg/mL for HEKa cells; and 0.001 mg/mL, 0.005 mg/mL and 0.01 mg/mL for HDFa cells) in triplicates, for MTT evaluation. […] The plates were placed on a shaker for 5 minutes for complete solubilisation of the crystals and then the absorbance at 450 nm of each well was determined using the microplate reader Multiskan FC, which is directly proportional to the number of living cells in culture. Absorbance values were normalized using the data obtained for non-treated cells (basal state).

The subject of data set [3] is HDFa (Human Dermal Fibroblasts, adult) cells. The data set is described as follows: MTT viability assay (cytotoxicity) in HDFa cells. Conditions: 0.001-0.01 mg/mL, 24 h, vs basal state. Here is the method: as §3, §4
Data set [4] has as its system human organotypical skin explant cultures (hOSECs). In words: Resazurin assay in human organotypical skin explant cultures. To be noted: 5 μg/mL. Here is the method:
as §1, §2
The total number of treatment groups was as follows: • 1. Control group (negative control): Untreated hOSEC. • 2. Aged hOSEC: hOSECs treated with hydrocortisone at 5 μg/mL (Abraham A, Roga G. (2014) Topical steroid-damaged skin. Indian J Dermatol. 59(5), 456-9.) • 3. Aged hOSEC+Product A (cream, this is, placebo): hOSECs treated with hydrocortisone at 5 μg/mL and incubated with product A (10 μL). • 4. Aged hOSEC+Product B (cream with Pal-SEQ ID NO: 1-NH2 at a concentration of 0.005 mg/mL): hOSECs treated with hydrocortisone at 5 μg/mL and incubated with Product B (10 μL).
The total duration of the assay was of 10 days (days 1 to 10). Hydrocortisone was applied in the appropriate or corresponding groups each day on days 1 to 5. […]
For the resazurin assay, the skin explants were treated with 6 μM of resazurin in NaCl solution for 1 hour. […] The resorufin formed was quantified in a fluorometer plate reader.
The fluorescent signal was monitored using 530-560 nm excitation wavelength and 590 nm emission wavelength.
The results of the resazurin assay were calculated considering the negative control, untreated healthy hOSECs, as 100% viability. […]

Consider `CCCCCCCCCCCCCCCC(=O)N[C@@H](Cc1c[nH]cn1)C(=O)N[C@@H](Cc1ccc(O)cc1)C(=O)N[C@@H](CCCNC(=N)N)C(=O)N[C@@H](C)C(N)=O` [Pal-SEQ ID NO: 1-NH2, Pal-His-Tyr-Arg-Ala-NH2] (Palmitoyl-HYRA-NH2), for which the “toxicity deduced from LDH cytotoxicity assay and resazurin assay” value in data set [1] (cream with 0.005 mg/mL peptide on aged hOSEC) was “not toxic”. Moreover, the “viability of HEKa cells” value in data set [2] was “did not alter viability”. For the same molecule, in data set [3], the “viability of HDFa cells” value is “did not alter viability”.
Turning to `C[C@]12CCC(=O)C=C1CC[C@@H]1[C@@H]2[C@@H](O)C[C@@]2(C)[C@H]1CC[C@]2(O)C(=O)CO` [hydrocortisone, reference compound], the “adverse effect in hOSECs (LDH, plasma membrane damage)” value in data set [1] (hydrocortisone 5 μg/mL, days 1 to 5) is “did not produce any adverse effect”. Also, the “reduction of Resorufin percentage with respect to the Control group” value in data set [4] stood at 10%.
